Earlier results in patent publication US20250354118A1, “COMPOSITIONS AND METHODS FOR NK CELL DIFFERENTIATION” (Umoja Biopharma, Inc., priority 2022, published 2025).
pKd: −log10 of the molar value.

Biological target: PSMA-positive human prostate cancer cells (Homo sapiens, UniProt Q04609)
Conditions: Kularatne et al., Mol Pharm. 2009

Sequence of PSMA-positive human prostate cancer cells (Q04609 whole entry): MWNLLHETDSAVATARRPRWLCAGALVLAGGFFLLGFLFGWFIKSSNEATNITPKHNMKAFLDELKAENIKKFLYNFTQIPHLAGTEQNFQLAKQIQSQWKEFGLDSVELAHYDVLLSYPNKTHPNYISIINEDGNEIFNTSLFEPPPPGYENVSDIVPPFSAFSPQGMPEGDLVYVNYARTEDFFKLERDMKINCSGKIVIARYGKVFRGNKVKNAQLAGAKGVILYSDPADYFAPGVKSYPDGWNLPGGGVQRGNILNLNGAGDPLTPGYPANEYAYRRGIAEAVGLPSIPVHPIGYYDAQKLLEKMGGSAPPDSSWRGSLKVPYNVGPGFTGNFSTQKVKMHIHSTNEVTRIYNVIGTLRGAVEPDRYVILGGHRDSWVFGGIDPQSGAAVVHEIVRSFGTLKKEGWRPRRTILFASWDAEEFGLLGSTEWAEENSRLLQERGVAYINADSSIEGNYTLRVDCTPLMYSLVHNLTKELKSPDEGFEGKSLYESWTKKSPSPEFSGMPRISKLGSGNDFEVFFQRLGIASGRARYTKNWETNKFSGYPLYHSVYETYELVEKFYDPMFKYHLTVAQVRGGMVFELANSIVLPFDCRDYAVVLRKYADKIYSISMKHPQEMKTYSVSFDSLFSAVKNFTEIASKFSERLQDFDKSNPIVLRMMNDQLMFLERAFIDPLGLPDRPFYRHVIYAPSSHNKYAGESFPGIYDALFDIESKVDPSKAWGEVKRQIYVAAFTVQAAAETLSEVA

- pKd: 7.85
Compound: O=C(O)CC[C@H](NC(=O)N[C@@H](CCC(=O)O)C(=O)O)C(=O)O [DUPA]
